Test results: paper PMC4957076, “Shared mechanism of teratogenicity of anti-angiogenic drugs identified in the chicken embryo model” (Scientific Reports, 2016)

Legend:
[1] = test system: fli1:EGFP zebrafish embryos; assay: fli1:EGFP zebrafish embryo exposure: survival and intersegmental vessel development; assay type: in vivo
Procedure: We then examined the extent and nature of the anti-angiogenic effects of the compounds using transgenic fli1:EGFP zebrafish embryos. The vasculature of these fish is tagged with EGFP and the transparency of the zebrafish allows for visualization of the forming blood vessels and any effect of anti-cancer drugs on their development over time (Fig. 4). A known anti-angiogenic and teratogenic compound (CPS49) was screened alongside the drugs as a positive control at 10 μg/mL (30 μM), a previously established anti-angiogenic concentration.
fli1:EGFP zebrafish were obtained from the Zebrafish international Resource Centre[29] and maintained in an approved aquarium habitat at 28 °C. At 24 hours post fertilization (hpf) the embryos were checked for GFP expression using a fluorescent microscope and manually dechorionated with forceps, exposed to either a vehicle control, or an anti-angiogenic anti-cancer compound (at 24 hpf) for 24 hours and imaged at 48 hpf. At this point the embryos were anaesthetized in 0.1% tricaine and the length and number of intersegmental vessels (ISV) were quantified as previously described. A minimum of 10 embryos were screened per drug, per concentration, and experiments were performed in triplicate.

[2] = test system: Mouse; conditions: cited from earlier work
[3] = test system: HUVEC cells; assay: Endothelial cell proliferation assay (CCK-8); assay type: cell-based, Human; conditions: Homo sapiens, 18 hours exposure, CCK-8 assay, n = 9
Procedure: Anti-angiogenic drugs were screened in a concentration gradient in the HUVEC culture assay. […] Cell proliferation was assessed using a CCK-8 assay (Dojindo). Statistical analysis by two-way Anova. Error represents the standard error of the mean.
HUVEC cells were purchased from ATCC (Manassas, VA) and cultured as previously described. No further authentication was performed. Cells were seeded at 6.5 × 10^4 cells per well in 100 μL of medium per well. Drugs were diluted in prewarmed DMEM. Serial dilutions were performed from 1000–0.1 nM. The cells were left to grow for 18 hours with exposure to vehicle control (DMSO) or drugs. Experiments were done in triplicate each time. Cellular proliferation was assessed using a CCK-8 assay (Dojindo, Rockville, MD). All plates were read at 450 nm.

[4] = test system: chicken embryos
Procedure: We then administered the compounds to developing chicken embryos to observe any teratogenic effects. […] At 48 hours post drug application both the survival rate and the incidence of defects were analyzed. A range of concentrations was tested to determine the effects and optimal concentration that was not 100% lethal.
Fertilized white leghorn chicken embryos purchased from Henry Stewart Ltd. (Herefordshire, United Kingdom) were maintained in an incubator as described previously. At Hamburger and Hamilton stage 18–20 (E2.5-3)[54] the eggs were windowed and the embryos were prepared for drug exposure. To establish a dose response the drugs were applied once to the embryos and growth was monitored as described previously. In a second set of experiments, filter paper squares were cut 100 μm × 100 μm and soaked in the compound of interest for 10 minutes. While the filter paper squares absorbed the solution, embryonic membranes were removed and the sponge was then placed onto the limb bud. The eggs were sealed with tape and returned to an incubator. The embryos were checked daily for developmental defects and to ensure the filter paper squares remained in place. Control embryos were treated with 100 μL PBS with 0.1% DMSO. Embryos were removed from the eggs and fixed in 5% TCA at 4 degrees for 24 hours. Embryos were then washed in alcian blue for 8 hours, and placed in acid ethanol over night before being dehydrated in 100% ethanol for three one hour treatments. The tissue was then cleared in methyl salicylate. Cartilage was imaged and subsequently measured using a graticule scale and ImageJ. A minimum of 8 embryos was used per drug, per concentration. All animal work was licensed and carried out in accordance with and with approval of UK Home Office and Institutional ethical and welfare guidelines.

[5] = test system: developing limb bud of chicken embryos; assay: Drug-soaked filter paper square placed on the developing limb bud of chicken embryos; assay type: in vivo; conditions: filter paper square soaked in drug, HH St 18–20
From the text: Given the potency of these drugs and the resulting embryonic lethality we focused our attention on how the drugs affect limb development. The developing limb bud is a well studied morphological assay[22][41][42] ideal for understanding mechanisms of embryogenesis and how drugs influence this process. Moreover, other anti-angiogenic drugs like thalidomide and valproate cause limb defects. […] We therefore established a method where a small filter paper square soaked in the drug of interest could be placed directly onto the limb tissue of the embryo, thus avoiding or minimalizing exposure of the drug to other developing tissue/structures and retaining high viability. Filter paper squares were soaked for 10 minutes prior to removal of the embryonic membrane of HH St 18–20 (E2.5-E3) chicken embryos, then placed over the developing limb bud. Filter paper squares soaked in 0.1% DMSO had no effect on limb outgrowth.
The tissue was then cleared in methyl salicylate.

[6] = human; cited from earlier work

## CO[C@@H]1[C@H](OC(=O)NC(=O)CCl)CC[C@]2(CO2)[C@H]1[C@@]1(C)O[C@@H]1CC=C(C)C [TNP-470]
[1]; 200 μg/mL
  treated zebrafish killed: 90%
  vessel outgrowth: reducing vessel outgrowth
[1]; <200 μg/mL
  effect at low doses: little effect
[1]; concentration gradient, within 24 hours of drug exposure
  relative potency in reducing vessel outgrowth: no effect until 200 μg/mL
[2]; Mouse/Mice
  Defects produced: Complete failure of embryonic growth
  Systemic exposure (AUC) compared to human exposure: Below human
[2]
  effect during pregnancy in mouse models: anti-angiogenic, disrupting newly developing blood vessels in the placenta and embryonic eye
[3]
  IC50: < 10 nM
[4]; Table 1 summary
  Defects produced in chicken embryos: Embryolethality, cranial hemorrhaging, micropthalmia, limb defects, spine
[4]; global treatment, surviving embryos
  defects observed in treated embryos: twisting of the spinal cord
[5]
  effect on limb after direct application to limb bud: Tissue was necrotic-looking
[6]
  Clinical Toxicities: Neurotoxicity
